One assay has as its target plasma kallikrein (PK) (Homo sapiens, UniProt P03952). The assay is described as follows: Determining the inhibitory constants: inhibition of PK (substrate Bzl-Pro-Phe-Arg-pNA). It is filed as biochemical. Conditions: Tris buffer pH 8.0, 25° C.; mean of at least three determinations. How it is done:
(§1) The inhibitory effect for the individual enzymes was determined in analogy with a method which has already been described (Stürzebecher et al., J. Med. Chem. 40, 3091-3099, 1997).
(§2) After 3 min, the reaction was terminated by adding 25 μl of acetic acid (50%) and the absorption at […] was determined using a Microplate Reader (Labsystems iEMS Reader MF). The Ki values were determined, in accordance with Dixon (Biochem. J. 55, 170-171, 1953), by means of linear regression and using a computer program. The Ki values are the mean of at least three determinations.
Sequence of plasma kallikrein (PK) (P03952 391-638 limits assumed, species assumed): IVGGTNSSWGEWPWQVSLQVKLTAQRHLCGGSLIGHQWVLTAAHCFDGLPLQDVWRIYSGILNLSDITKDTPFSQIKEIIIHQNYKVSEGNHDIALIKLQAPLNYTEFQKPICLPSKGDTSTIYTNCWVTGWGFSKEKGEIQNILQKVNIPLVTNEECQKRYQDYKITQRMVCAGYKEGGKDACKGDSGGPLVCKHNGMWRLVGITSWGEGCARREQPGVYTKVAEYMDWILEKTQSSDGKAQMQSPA
Sequence of plasma kallikrein (PK) (P03952 20-390 partner limits assumed, species assumed): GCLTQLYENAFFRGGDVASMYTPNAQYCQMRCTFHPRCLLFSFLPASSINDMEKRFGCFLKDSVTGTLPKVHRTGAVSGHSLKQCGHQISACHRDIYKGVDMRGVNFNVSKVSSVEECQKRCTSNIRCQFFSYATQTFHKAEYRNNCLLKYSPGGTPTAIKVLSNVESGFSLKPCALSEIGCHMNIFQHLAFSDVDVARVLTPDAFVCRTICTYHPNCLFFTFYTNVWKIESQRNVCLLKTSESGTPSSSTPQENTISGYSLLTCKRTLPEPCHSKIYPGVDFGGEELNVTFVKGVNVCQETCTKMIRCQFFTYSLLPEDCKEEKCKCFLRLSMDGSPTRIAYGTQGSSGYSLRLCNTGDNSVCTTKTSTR
The Ki is the dissociation constant of the complex between target and ligand, obtained from inhibition or displacement. On to `C[C@@H](O)[C@H](NC(=O)[C@@H](COC(C)(C)C)NS(=O)(=O)Cc1ccccc1)C(=O)NCc1ccc(C(=N)N)cc1` [Inhibitor 38], for which the Ki amounted to 32 nM.
Regarding `CC(C)(C)OC[C@@H](NS(=O)(=O)Cc1ccc(C(=O)O)cc1)C(=O)NCC(=O)NCc1ccc(C(=N)N)cc1` [Inhibitor 46], the affinity, expressed as Ki, was 29 nM.
As for `N#Cc1cccc(CS(=O)(=O)N[C@H](CC2CCCCC2)C(=O)N2CCC[C@H]2C(=O)NCc2ccc(C(=N)N)cc2)c1` [Inhibitor 52], the inhibitory constant (Ki) was 86 nM.
`CC(C)(C)OC[C@@H](NS(=O)(=O)Cc1ccccc1)C(=O)N[C@@H](CCCCNC(=O)C(F)(F)F)C(=O)NCc1ccc(C(=N)N)cc1` [Inhibitor 62]: the inhibition constant Ki came out at 11 nM.
Still for that read-out and setting: as for `CC(C)(C)OC[C@@H](NS(=O)(=O)Cc1ccccc1)C(=O)N[C@@H](Cc1c[nH]cn1)C(=O)NCc1ccc(C(=N)N)cc1` [Inhibitor 64], the figure is 14 nM; as for `CC(C)(C)OC[C@@H](NS(=O)(=O)Cc1ccc(CC(=O)O)cc1)C(=O)N1CCC[C@H]1C(=O)NCc1ccc(C(=N)N)cc1` [Inhibitor 66], 16 nM; as for `CC(C)(C)OC[C@@H](NS(=O)(=O)Cc1ccccc1)C(=O)N[C@@H](CCONC(=N)N)C(=O)NCc1ccc(C(=N)N)cc1` [Inhibitor 68], 19 nM.
Consider `N=C(N)c1ccc(CNC(=O)[C@H](CO)NC(=O)[C@@H](CCc2ccncc2)NS(=O)(=O)Cc2ccccc2)cc1` [Inhibitor 69], for which the Ki was found to be 20 nM.
For `CC(C)(C)OC[C@@H](NS(=O)(=O)Cc1ccc(C(=O)O)cc1)C(=O)N1CCC[C@H]1C(=O)NCc1ccc(C(=N)N)cc1` [Inhibitor 70], the inhibitory constant (Ki) was found to be 25 nM.
`N=C(N)c1ccc(CNC(=O)[C@H](CCCCNC(=O)CCC(=O)O)NC(=O)[C@@H](CC2CCCCC2)NS(=O)(=O)Cc2ccccc2)cc1` [Inhibitor 71]: the Ki worked out at 29 nM.
The same measure, in the same setting: as for `N=C(N)c1ccc(CNC(=O)[C@H](CCC(=O)O)NC(=O)[C@@H](CCc2ccc(O)cc2)NS(=O)(=O)Cc2ccccc2)cc1` [Inhibitor 72], the figure is 220 nM; as for `N=C(N)c1ccc(CNC(=O)[C@H](CO)NC(=O)[C@@H](CCc2ccc(O)cc2)NS(=O)(=O)Cc2ccccc2)cc1` [Inhibitor 73], 130 nM.
On the same count and under the same terms, as for `N=C(N)c1ccc(CNC(=O)CNC(=O)[C@@H](CCc2ccc(O)cc2)NS(=O)(=O)Cc2ccccc2)cc1` [Inhibitor 75], the figure is 120 nM; as for `N=C(N)c1ccc(CNC(=O)CNC(=O)[C@@H](CCc2ccccc2)NS(=O)(=O)Cc2ccccc2)cc1` [Inhibitor 76], 390 nM.
For `N=C(N)c1ccc(CNC(=O)CNC(=O)[C@@H](CCc2ccccc2)NS(=O)(=O)Cc2ccc(N)cc2)cc1` [Inhibitor 78], the affinity, expressed as Ki, was 45 nM.
Same read-out and setting: as for `N=C(N)c1ccc(CNC(=O)CNC(=O)[C@H](NS(=O)(=O)Cc2ccccc2)C2Cc3ccccc3C2)cc1` [Inhibitor 83], the figure is 75 nM; as for `N=C(N)c1ccc(CNC(=O)CNC(=O)C(CCc2ccncc2)NS(=O)(=O)Cc2ccccc2)cc1` (centres unmarked) [Inhibitor 85], 130 nM; as for `N=C(N)c1ccc(CNC(=O)[C@H](CCCCNC(=O)CCCC(=O)O)NC(=O)[C@@H](CO)NS(=O)(=O)Cc2ccccc2)cc1` [Inhibitor 86], 390 nM.

Another assay deals with T1, human factor XIIa (Homo sapiens, UniProt P00748).
T1 construct: purchased Haemochrom Diagnostica GmbH, Essen, Germany
T1 sequence (P00748 373-615 limits assumed, other chains not shown): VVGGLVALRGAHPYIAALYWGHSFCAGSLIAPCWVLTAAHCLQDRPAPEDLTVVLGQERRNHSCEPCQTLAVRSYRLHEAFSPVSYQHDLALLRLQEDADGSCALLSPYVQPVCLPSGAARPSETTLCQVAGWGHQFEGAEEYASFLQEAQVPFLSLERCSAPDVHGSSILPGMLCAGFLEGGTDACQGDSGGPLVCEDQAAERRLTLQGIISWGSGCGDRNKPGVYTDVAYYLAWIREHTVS
The assay is described as follows: Inhibitory constants for factor XIIa (substrate H-D-HHT-Gly-Arg-pNA, Chromozym XII). Conditions: read-out: Ki F XIIa. The class given is biochemical. How it is done:
as §1, §2
(§3) The inhibition of factor XIa and factor XIIa was determined in an analogous manner. When determining the inhibitory constants for human factor XIa (Haemochrom Diagnostica GmbH, Essen, Germany), H-D-Lys(Z)-Pro-Arg-pNA (Chromozym PCa, Roche Diagnostics GmbH, Mannheim, Germany) was used as the substrate.
H-D-HHT-Gly-Arg-pNA (Chromozym XII, Roche Diagnostics GmbH, Mannheim, Germany) was used as the substrate for measuring the inhibitory constants of human factor XIIa (Haemochrom Diagnostica GmbH, Essen, Germany).
For the compound `C[C@@H](O)[C@H](NC(=O)[C@@H](COC(C)(C)C)NS(=O)(=O)Cc1ccccc1)C(=O)NCc1ccc(C(=N)N)cc1` [Inhibitor 38], the inhibition constant Ki was determined as 14000 nM.
The same measure, in the same setting: as for `CC(C)(C)OC[C@@H](NS(=O)(=O)Cc1ccc(C(=O)O)cc1)C(=O)NCC(=O)NCc1ccc(C(=N)N)cc1` [Inhibitor 46], the figure is 7500 nM; as for `N#Cc1cccc(CS(=O)(=O)N[C@H](CC2CCCCC2)C(=O)N2CCC[C@H]2C(=O)NCc2ccc(C(=N)N)cc2)c1` [Inhibitor 52], 13000 nM.
Still for that read-out and setting: as for `CC(C)(C)OC[C@@H](NS(=O)(=O)Cc1ccccc1)C(=O)N[C@@H](CCCCNC(=O)C(F)(F)F)C(=O)NCc1ccc(C(=N)N)cc1` [Inhibitor 62], the figure is 6100 nM.
Turning to `CC(C)(C)OC[C@@H](NS(=O)(=O)Cc1ccccc1)C(=O)N[C@@H](Cc1c[nH]cn1)C(=O)NCc1ccc(C(=N)N)cc1` [Inhibitor 64], the inhibitory constant (Ki) was 61000 nM.
Regarding `CC(C)(C)OC[C@@H](NS(=O)(=O)Cc1ccc(CC(=O)O)cc1)C(=O)N1CCC[C@H]1C(=O)NCc1ccc(C(=N)N)cc1` [Inhibitor 66], the Ki came to 4000 nM.
Still for that read-out and setting: as for `CC(C)(C)OC[C@@H](NS(=O)(=O)Cc1ccccc1)C(=O)N[C@@H](CCONC(=N)N)C(=O)NCc1ccc(C(=N)N)cc1` [Inhibitor 68], the figure is 6800 nM; as for `N=C(N)c1ccc(CNC(=O)[C@H](CO)NC(=O)[C@@H](CCc2ccncc2)NS(=O)(=O)Cc2ccccc2)cc1` [Inhibitor 69], 1600 nM.
Same read-out and setting: under `CC(C)(C)OC[C@@H](NS(=O)(=O)Cc1ccc(C(=O)O)cc1)C(=O)N1CCC[C@H]1C(=O)NCc1ccc(C(=N)N)cc1` [Inhibitor 70] stands 2400 nM.
On the same count and under the same terms, under `N=C(N)c1ccc(CNC(=O)[C@H](CCCCNC(=O)CCC(=O)O)NC(=O)[C@@H](CC2CCCCC2)NS(=O)(=O)Cc2ccccc2)cc1` [Inhibitor 71] stands 11000 nM; under `N=C(N)c1ccc(CNC(=O)[C@H](CCC(=O)O)NC(=O)[C@@H](CCc2ccc(O)cc2)NS(=O)(=O)Cc2ccccc2)cc1` [Inhibitor 72], 360 nM; under `N=C(N)c1ccc(CNC(=O)[C@H](CO)NC(=O)[C@@H](CCc2ccc(O)cc2)NS(=O)(=O)Cc2ccccc2)cc1` [Inhibitor 73], 280 nM.
As for `N=C(N)c1ccc(CNC(=O)CNC(=O)[C@@H](CCc2ccc(O)cc2)NS(=O)(=O)Cc2ccccc2)cc1` [Inhibitor 75], the inhibitory constant (Ki) was 780 nM.
Still for that read-out and setting: as for `N=C(N)c1ccc(CNC(=O)CNC(=O)[C@@H](CCc2ccccc2)NS(=O)(=O)Cc2ccccc2)cc1` [Inhibitor 76], the figure is 150 nM; as for `N=C(N)c1ccc(CNC(=O)CNC(=O)[C@@H](CCc2ccccc2)NS(=O)(=O)Cc2ccc(N)cc2)cc1` [Inhibitor 78], 260 nM; as for `N=C(N)c1ccc(CNC(=O)CNC(=O)[C@H](NS(=O)(=O)Cc2ccccc2)C2Cc3ccccc3C2)cc1` [Inhibitor 83], 370 nM.
Regarding `N=C(N)c1ccc(CNC(=O)CNC(=O)C(CCc2ccncc2)NS(=O)(=O)Cc2ccccc2)cc1` (centres unmarked) [Inhibitor 85], the Ki was 400 nM.

In the next assay the target is T2, human factor XIa (Homo sapiens, UniProt P03951).
T2 construct: purchased Haemochrom Diagnostica GmbH, Essen, Germany
T2 sequence (P03951 388-625 limits assumed): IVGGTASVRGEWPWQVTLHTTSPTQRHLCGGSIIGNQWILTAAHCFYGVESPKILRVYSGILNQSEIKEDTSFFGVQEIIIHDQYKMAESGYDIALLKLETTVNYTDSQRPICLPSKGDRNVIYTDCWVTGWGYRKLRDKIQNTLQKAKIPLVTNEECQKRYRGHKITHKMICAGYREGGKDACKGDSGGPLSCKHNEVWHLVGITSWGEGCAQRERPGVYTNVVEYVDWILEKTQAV
T2 sequence (P03951 19-387 partner limits assumed): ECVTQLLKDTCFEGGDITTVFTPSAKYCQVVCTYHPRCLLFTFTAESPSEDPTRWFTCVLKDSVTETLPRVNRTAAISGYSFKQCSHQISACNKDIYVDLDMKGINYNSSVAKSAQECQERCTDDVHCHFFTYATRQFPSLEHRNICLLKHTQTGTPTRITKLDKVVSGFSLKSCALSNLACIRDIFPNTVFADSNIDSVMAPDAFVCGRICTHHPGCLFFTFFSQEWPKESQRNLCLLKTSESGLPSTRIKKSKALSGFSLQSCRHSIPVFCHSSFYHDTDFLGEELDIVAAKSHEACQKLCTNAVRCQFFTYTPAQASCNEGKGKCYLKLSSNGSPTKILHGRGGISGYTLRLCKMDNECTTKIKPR
The experiment in a line: Inhibitory constants for factor XIa (substrate H-D-Lys(Z)-Pro-Arg-pNA, Chromozym PCa). The class given is biochemical. Particulars: read-out: Ki F XIa. As for the experimental part: as §1, §2, §3
As to `N=C(N)c1ccc(CNC(=O)[C@H](CCC(=O)O)NC(=O)[C@@H](CCc2ccc(O)cc2)NS(=O)(=O)Cc2ccccc2)cc1` [Inhibitor 72], the Ki is 28 nM.
For the compound `N=C(N)c1ccc(CNC(=O)[C@H](CO)NC(=O)[C@@H](CCc2ccc(O)cc2)NS(=O)(=O)Cc2ccccc2)cc1` [Inhibitor 73], the inhibitory constant (Ki) was 78 nM.
Consider `N=C(N)c1ccc(CNC(=O)CNC(=O)[C@@H](CCc2ccc(O)cc2)NS(=O)(=O)Cc2ccccc2)cc1` [Inhibitor 75], for which the inhibition constant Ki was 610 nM.
Turning to `N=C(N)c1ccc(CNC(=O)CNC(=O)[C@@H](CCc2ccccc2)NS(=O)(=O)Cc2ccccc2)cc1` [Inhibitor 76], the Ki stood at 270 nM.
On the same count and under the same terms, as for `N=C(N)c1ccc(CNC(=O)CNC(=O)[C@@H](CCc2ccccc2)NS(=O)(=O)Cc2ccc(N)cc2)cc1` [Inhibitor 78], the figure is 120 nM; as for `N=C(N)c1ccc(CNC(=O)CNC(=O)C(CCc2ccncc2)NS(=O)(=O)Cc2ccccc2)cc1` (centres unmarked) [Inhibitor 85], 1100 nM.

A further assay deals with thrombin (UniProt P00735). The experiment in a line: Inhibitory constants for thrombin. Conditions: read-out: Ki Thrombin. The class given is biochemical.
As to `C[C@@H](O)[C@H](NC(=O)[C@@H](COC(C)(C)C)NS(=O)(=O)Cc1ccccc1)C(=O)NCc1ccc(C(=N)N)cc1` [Inhibitor 38], the Ki is 44 nM.
Regarding `CC(C)(C)OC[C@@H](NS(=O)(=O)Cc1ccc(C(=O)O)cc1)C(=O)NCC(=O)NCc1ccc(C(=N)N)cc1` [Inhibitor 46], the Ki was 2200 nM.
Same read-out and setting: as for `N#Cc1cccc(CS(=O)(=O)N[C@H](CC2CCCCC2)C(=O)N2CCC[C@H]2C(=O)NCc2ccc(C(=N)N)cc2)c1` [Inhibitor 52], the figure is less than 1 nM; as for `CC(C)(C)OC[C@@H](NS(=O)(=O)Cc1ccccc1)C(=O)N[C@@H](CCCCNC(=O)C(F)(F)F)C(=O)NCc1ccc(C(=N)N)cc1` [Inhibitor 62], 2.9 nM.
On to `CC(C)(C)OC[C@@H](NS(=O)(=O)Cc1ccccc1)C(=O)N[C@@H](Cc1c[nH]cn1)C(=O)NCc1ccc(C(=N)N)cc1` [Inhibitor 64], for which the Ki stood at 120 nM.
The same measure, in the same setting: under `CC(C)(C)OC[C@@H](NS(=O)(=O)Cc1ccc(CC(=O)O)cc1)C(=O)N1CCC[C@H]1C(=O)NCc1ccc(C(=N)N)cc1` [Inhibitor 66] stands 1.8 nM; under `CC(C)(C)OC[C@@H](NS(=O)(=O)Cc1ccccc1)C(=O)N[C@@H](CCONC(=N)N)C(=O)NCc1ccc(C(=N)N)cc1` [Inhibitor 68], 38 nM.
Same read-out and setting: under `N=C(N)c1ccc(CNC(=O)[C@H](CO)NC(=O)[C@@H](CCc2ccncc2)NS(=O)(=O)Cc2ccccc2)cc1` [Inhibitor 69] stands 910 nM; under `CC(C)(C)OC[C@@H](NS(=O)(=O)Cc1ccc(C(=O)O)cc1)C(=O)N1CCC[C@H]1C(=O)NCc1ccc(C(=N)N)cc1` [Inhibitor 70], 2.3 nM.
`N=C(N)c1ccc(CNC(=O)[C@H](CCCCNC(=O)CCC(=O)O)NC(=O)[C@@H](CC2CCCCC2)NS(=O)(=O)Cc2ccccc2)cc1` [Inhibitor 71]: the inhibitory constant (Ki) turned out to be 2.1 nM.
On the same count and under the same terms, under `N=C(N)c1ccc(CNC(=O)CNC(=O)[C@H](NS(=O)(=O)Cc2ccccc2)C2Cc3ccccc3C2)cc1` [Inhibitor 83] stands 140 nM; under `N=C(N)c1ccc(CNC(=O)[C@H](CCCCNC(=O)CCCC(=O)O)NC(=O)[C@@H](CO)NS(=O)(=O)Cc2ccccc2)cc1` [Inhibitor 86], 2800 nM.

The record behind these values is US9365613B2, “Acylated 4-amidino- and -4-guanidinobenzylamines for inhibition of plasma kallikrein” (The Medicines Company (Leipzig) GmbH, priority 2003, dated 2016).
